Source: patent publication US20090202499A1, “Human Telomerase Reverse Transcriptase Peptides” (priority 2006, published 2009)
Entries after “also recorded” stand apart in the source; their conditions may differ.

Assays:
[1] = tested on: T2-B7 pulsed with peptide; assay: small scale in vitro immunization of normal donor PBMC (96 well plate), micro 51Cr-release CTL assay; assay type: cell-based, human; details: for CTL response (specific lysis) Donor 1 / CTL response (specific lysis) Donor 2 / CTL response (specific lysis) Donor 3 / CTL response (specific lysis) Donor 4 / CTL response (specific lysis) Donor 5 / CTL response (specific lysis) Donor 6 / CTL response (specific lysis) Donor 7 / CTL response (specific lysis) Donor 8: HLA-B7+ normal donor PBMC, day 10-11, approximate E:T 10:1; for CTL response of normal donor PBMC in micro-CTL assay (in words): eight HLA-B7+ normal donors; for Low R/Total: low responders among eight donors; for High R/Total: responders considered at >50% specific CTL lysis, eight donors
Procedure: In vitro immunization procedures. In experiments shown in Table III and FIG. 3, immunizations were performed in 96 well plates. Briefly, 2×10^5 irradiated (6000 rads) human PBMC were plated in 96 (flat) well-plate in 100 micro-liters of complete human medium (RPMI 1640 medium containing 10% heat inactivated human AB serum, 2 mM glutamine, 50 micro-grams/ml streptomycin and 50 micro-grams/ml penicillin) with 100 micro-grams/ml of peptide. 12 wells per peptide were plated per patient. Then 2×10^5 PBMC in 100 micro-liters of complete human medium were added into each well. Four days later 100 micro-liters of medium were replaced with 100 micro-liters of fresh complete human medium containing 80 IU/ml of IL-2. At day 6-7, 100 IU/ml of IL-2 were added and wells were split into two. On day 10-11 micro-cytotoxicity assay was performed. In experiments shown in FIGS. 4 and 5 human PBMC were stimulated in vitro in 24 well plate with autologous, irradiated, peptide-pulsed adherent cells in the presence of IL-2 and IL-7 as previously described (12). On day 4 to 5 after restimulation, effector CTL were tested in a standard ^51Cr-release assay.
(§1) CTL assays. Both murine and human CTL were detected by the ^51Cr release assay performed as previously described (14). Briefly, HLA-B7^+ antigen presenting cells (RMA-B7 or T2-B7 cells) were labeled for 1 hr with 100 micro-Ci of Na2^51CrO4 (Perkin Elmer). Washed cells (5×10^3 per well) were mixed in 96-well plates in 100 micro-liters/well with each peptide (at 10 micro-grams/ml or lower concentration) and 100 micro-liters of the CTL effector cells (at various E:T ratio) in RPMI medium. The plates were incubated for 4-5 hrs at 37° C. (5% CO2). The supernatants were harvested and counted on a Wallac 1470 Wizard Gamma counter. The percent lysis was calculated as 100 (cpmexp−cpmspont)/(cpmmax−cpmspont).
To further assess the immunogenicity of the selected peptide candidates as well as their ability to expand precursor CD8 T cell in human PBMC, the following experiment was performed. PBMC from eight HLA-B7^+ normal donors were screened in a small scale in vitro immunization assay (96 well plate assay) to determine the level of responses against each individual peptide. As indicated the response to these peptides varied among the eight donors. […] Thus, the results of this in vitro assay narrowed the spectrum of immunogenic peptides beyond those identified in vivo in HLA-B7 Tg mice. A typical result of this type of analysis is shown in FIG. 3, which depicts the induction of CTL and their specificity in each of the twelve wells. As shown, there is considerable variability in the number of positive wells per peptide as well as in the percentage lysis which itself varied from peptide to peptide. This variation in the response to each peptide may be related to either an intrinsic characteristic of the peptide (e.g., its avidity) or a variation in the frequency of CD8 T cell precursors for that peptide among donors particularly in view of the format of the assay used.
PBMC from HLA-B7^+ normal blood donors were pulsed with the candidate peptide in 96 well plate assay (described in Material and Methods), and tested for lysis of T2-B7 pulsed with peptide on day 10-11. A micro ^51Cr-release assay was performed as described in Material and Methods. Responders were considered at >50% specific CTL lysis. CTL assays were performed at an approximate E:T ratio of 10:1. ND not done

[2] = tested on: RMA-B7 cells pulsed with the homologous hTRT peptide; assay: peptide immunization of HLA-B7 Tg mice, 51Cr-release assay; assay type: in vivo; details: 100 micrograms peptide + HBV helper peptide in IFA, s.c.
Procedure: FIG. 1. […] HLA-B7 Tg mice were vaccinated with 100 micrograms of individual hTRT peptide together with 120 micrograms of HBV helper peptide in IFA. Ten days after immunization, spleen lymphocytes were restimulated in vitro with peptide and fresh, irradiated syngeneic APC. Restimulations were performed on a weekly basis. A standard 4 hour ^51Cr-release assay was performed on day 5 after in vitro restimulation, using RMA-B7 cells pulsed with the homologous hTRT peptide as targets and an E:T ratio of 25:1. Results are expressed as the mean specific lysis plus or minus standard deviation of responder mice only, whose number is indicated in each panel. Tests were run in duplicate.
In vivo immunization procedures. Peptide immunization. HLA B7 transgenic mice (28) were injected s.c. at the base of the tail with 100 micro-grams of hTRT peptides along with 120 micro-grams of I-A^b MHC Class II helper peptide 128-140 of the hepatitis B virus core protein in incomplete Freunds' adjuvant as described previously (12). Long-term CTL lines were maintained in culture by weekly restimulation with irradiated, peptide-pulsed syngeneic spleen cells in RPMI-1640 medium containing 10% heat inactivated fetal bovine serum, 2 mM glutamine, 5×10^−5 M 2-Mercaptoethanol, 50 micro-grams/ml streptomycin, and 50 micro-grams/ml penicillin (complete medium) and supplemented with 40 IU/ml of recombinant human IL-2.
as §1
In order to assign immunogenicity to each of the peptides and correlate this property with the binding characteristics and the scores of the predictive algorithms, we immunized HLA-B7 Tg mice (28). Ten to eleven days after immunization mice were sacrificed, the spleen harvested and splenocytes put in culture with LPS/Dextran activated APC, and tested in a 4 hour ^51Cr-release assay. As shown, only five out of seven peptides yielded a meaningful, specific CTL response even after a third cycle of in vitro restimulation (FIG. 1). All immunogenic peptides induced a response from the first in vitro restimulation and this response increased upon subsequent rounds of antigen restimulation. As noted the lysis of peptide-pulsed RMA-B7 target cells increased at each round of in vitro restimulation. No lysis occurred on RMA-B7 cells not pulsed with peptide. Thus, the in vivo results together with the actual measure of the avidity of HLA-B7 binding avidity distinguished two groups of 9mer hTRT peptides.

SMILES | CTL response (specific lysis) Donor 1 [1] [%] | CTL response (specific lysis) Donor 2 [1] [%] | CTL response (specific lysis) Donor 3 [1] [%] | CTL response (specific lysis) Donor 4 [1] [%] | CTL response (specific lysis) Donor 5 [1] [%] | CTL response (specific lysis) Donor 6 [1] [%] | CTL response (specific lysis) Donor 7 [1] [%] | CTL response (specific lysis) Donor 8 [1] [%] | CTL response of normal donor PBMC in micro-CTL assay (in words) [1] | Low R/Total [1] | High R/Total [1] | immunogenicity in vivo, CTL response after peptide immunization (in words) [2]
CC[C@H](C)[C@H](NC(=O)[C@@H](NC(=O)[C@H](CCCCN)NC(=O)[C@H](Cc1ccccc1)NC(=O)[C@H](CC(=O)O)NC(=O)[C@H](CO)NC(=O)[C@@H]1CCCN1C(=O)[C@@H](N)CC(C)C)[C@@H](C)O)C(=O)N[C@@H](CC(C)C)C(=O)O [p1123] | >50 | >50 | >50 | <25 | >50 | >50 | >50 | >50 | strong responses in the majority of the subjects | 0/8 | 7/8 | good immunogenicity in vivo
CC(C)C[C@H](NC(=O)[C@H](C)NC(=O)[C@@H](NC(=O)[C@H](CC(C)C)NC(=O)[C@@H](NC(=O)[C@@H](NC(=O)CNC(=O)[C@@H]1CCCN1C(=O)[C@@H](N)CC(C)C)[C@@H](C)O)[C@@H](C)O)[C@@H](C)O)C(=O)O [p1107, LPGTTLTAL] | >50 | >50 | 0 | >50 | >25 | <25 | >25 | 0 | strong responses but in fewer instances only | 2/8 | 3/8 | good immunogenicity in vivo
CC(C)C[C@H](NC(=O)[C@H](CC(C)C)NC(=O)[C@H](CCC(N)=O)NC(=O)[C@@H](NC(=O)[C@H](CC(C)C)NC(=O)[C@H](CCCNC(=N)N)NC(=O)[C@H](CCCNC(=N)N)NC(=O)[C@@H]1CCCN1C(=O)[C@@H](N)CC(=O)O)C(C)C)C(=O)O [p444] |  |  | <25 | >25 | 0 | 0 | 0 | <25 | poorly immunogenic in vitro; also recorded: poor immunogenicity | 1/8 | 0/8 | not immunogenic in vivo; also recorded: poor immunogenicity; also recorded: poorly immunogenic
CC(C)C[C@H](NC(=O)[C@H](CCCNC(=N)N)NC(=O)[C@H](CCCNC(=N)N)NC(=O)[C@H](CC(C)C)NC(=O)[C@H](CS)NC(=O)[C@H](C)NC(=O)[C@H](CCCNC(=N)N)NC(=O)[C@@H](NC(=O)[C@@H](N)Cc1ccccc1)C(C)C)C(=O)O [p464] | >50 | >50 | 0 | >25 | <25 | <25 | <25 | 0 | strong responses but in fewer instances only | 1/8 | 2/8 | good immunogenicity in vivo
CC(C)C[C@H](NC(=O)[C@H](CO)NC(=O)[C@H](CO)NC(=O)[C@H](CC(C)C)NC(=O)[C@H](CC(C)C)NC(=O)[C@H](Cc1ccccc1)NC(=O)[C@H](CO)NC(=O)[C@@H]1CCCN1C(=O)[C@@H](N)CCCNC(=N)N)C(=O)O [p342] | >25 | >25 | >25 | >50 | 0 | <25 | >25 | 0 | strong responses but in fewer instances only | 4/8 | 1/8 | good immunogenicity in vivo
CC(C)C[C@H](NC(=O)[C@H](CO)NC(=O)[C@@H](NC(=O)[C@H](C)NC(=O)[C@H](CCC(=O)O)NC(=O)[C@H](CCC(=O)O)NC(=O)[C@H](C)NC(=O)[C@@H]1CCCN1C(=O)[C@@H](N)CCCNC(=N)N)[C@@H](C)O)C(=O)O [p277] | >50 | >50 | >50 | >50 | >50 | <25 | <25 | <25 | strong responses in the majority of the subjects | 0/8 | 5/8 | good immunogenicity in vivo
